Experiments:
Sphingosine kinase 2 [1] = biological target: T1, Sphingosine kinase 2 (Homo sapiens, UniProt Q9NRA0); experiment: Inhibition of SphK2 (unknown origin) assessed as inhibition constant
T1 sequence (Q9NRA0 whole entry): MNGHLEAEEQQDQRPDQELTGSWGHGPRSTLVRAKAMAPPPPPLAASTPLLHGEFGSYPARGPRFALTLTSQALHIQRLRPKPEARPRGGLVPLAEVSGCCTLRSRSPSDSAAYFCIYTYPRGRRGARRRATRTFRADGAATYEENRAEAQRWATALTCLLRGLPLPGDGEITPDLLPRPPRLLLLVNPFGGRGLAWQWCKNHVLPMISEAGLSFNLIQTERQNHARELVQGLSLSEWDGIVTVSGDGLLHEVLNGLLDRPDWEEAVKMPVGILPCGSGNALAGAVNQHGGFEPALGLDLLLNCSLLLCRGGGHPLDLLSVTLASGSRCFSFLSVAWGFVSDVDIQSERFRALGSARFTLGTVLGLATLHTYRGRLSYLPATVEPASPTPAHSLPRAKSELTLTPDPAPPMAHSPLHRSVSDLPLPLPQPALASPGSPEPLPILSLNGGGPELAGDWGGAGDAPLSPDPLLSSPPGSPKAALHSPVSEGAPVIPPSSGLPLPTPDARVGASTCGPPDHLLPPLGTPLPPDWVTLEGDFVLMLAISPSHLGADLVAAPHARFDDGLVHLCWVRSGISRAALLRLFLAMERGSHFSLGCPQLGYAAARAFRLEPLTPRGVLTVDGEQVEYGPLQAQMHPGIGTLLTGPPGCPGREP

Sphingosine kinase 1 [2] = biological target: T2, Sphingosine kinase 1 (Homo sapiens, UniProt Q9NYA1); experiment: Inhibition of SphK1 (unknown origin) assessed as inhibition constant
Sphingosine kinase 1 [3] = biological target: T2, Sphingosine kinase 1; experiment: Inhibition of recombinant GST-tagged SphK1 (unknown origin) (1 to 384 residues) expressed in baculovirus using sphingosine as substrate incubated for 1 hr in presence of ATP by electrophoretic mobility shift assay
Sphingosine kinase 2 [4] = biological target: T1, Sphingosine kinase 2; experiment: Inhibition of recombinant GST-tagged SphK2 (unknown origin) (1 to 618 residues) expressed in baculovirus using sphingosine as substrate incubated for 1 hr in presence of ATP by electrophoretic mobility shift assay
Sphingosine kinase 1 [5] = biological target: T2, Sphingosine kinase 1; experiment: Inhibition of SphK1 (unknown origin)
Sphingosine kinase 2 [6] = biological target: T1, Sphingosine kinase 2; experiment: Inhibition of SphK2 (unknown origin)
Sphingosine kinase 1 [7] = biological target: T2, Sphingosine kinase 1; experiment: Inhibition of SphK1 (unknown origin) using ATP as substrate preincubated for 40 mins followed by substrate addition and measured after 5 mins by spectrophotometric analysis
Sphingosine kinase 1 [8] = biological target: T2, Sphingosine kinase 1; experiment: Inhibition of recombinant SphK1 (unknown origin) using NBD-sphingosine as substrate in presence of ATP by fluorescence plate reader analysis
Sphingosine kinase 2 [9] = biological target: T1, Sphingosine kinase 2; experiment: Inhibition of recombinant SphK2 (unknown origin) using NBD-sphingosine as substrate in presence of ATP by fluorescence plate reader analysis
Sphingosine kinase 2 [10] = biological target: T1, Sphingosine kinase 2; experiment: Inhibition of SphK2 (unknown origin) using ATP as substrate preincubated for 40 mins followed by substrate addition and measured after 5 mins by spectrophotometric analysis
Sphingosine kinase 1 [11] = biological target: Sphingosine kinase 1 (Mus musculus, UniProt Q8CI15); experiment: Inhibition of recombinant mouse SphK1 expressed in baculovirus infected Sf9 cells using D-erythro-sphingosine and [gamma-32P]ATP as substrate incubated for 30 mins by liquid scintillation counting analysis
Sphingosine kinase 2 [12] = biological target: T3, Sphingosine kinase 2 (Mus musculus, UniProt Q9JIA7); experiment: Inhibition of recombinant mouse SphK2 expressed in baculovirus infected Sf9 cells using D-erythro-sphingosine and [gamma-32P]ATP as substrate incubated for 30 mins by liquid scintillation counting analysis
T3 sequence (Q9JIA7 whole entry): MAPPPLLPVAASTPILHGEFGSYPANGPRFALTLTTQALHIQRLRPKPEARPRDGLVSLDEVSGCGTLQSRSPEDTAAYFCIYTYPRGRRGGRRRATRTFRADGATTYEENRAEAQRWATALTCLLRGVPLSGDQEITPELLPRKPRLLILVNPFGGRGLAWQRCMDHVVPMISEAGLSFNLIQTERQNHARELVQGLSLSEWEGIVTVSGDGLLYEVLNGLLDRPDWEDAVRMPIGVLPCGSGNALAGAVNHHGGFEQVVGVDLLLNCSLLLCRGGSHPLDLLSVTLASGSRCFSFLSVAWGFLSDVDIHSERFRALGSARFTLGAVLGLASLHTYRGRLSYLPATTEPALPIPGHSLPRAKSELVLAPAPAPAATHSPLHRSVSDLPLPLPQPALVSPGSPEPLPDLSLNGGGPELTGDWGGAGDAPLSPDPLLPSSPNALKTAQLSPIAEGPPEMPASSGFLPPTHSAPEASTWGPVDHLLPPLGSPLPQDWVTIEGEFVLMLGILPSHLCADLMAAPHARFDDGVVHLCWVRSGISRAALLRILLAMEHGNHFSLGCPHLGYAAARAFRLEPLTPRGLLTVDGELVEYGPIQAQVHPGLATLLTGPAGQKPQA

T2 sequence (Q9NYA1 whole entry, the tested form may be a part): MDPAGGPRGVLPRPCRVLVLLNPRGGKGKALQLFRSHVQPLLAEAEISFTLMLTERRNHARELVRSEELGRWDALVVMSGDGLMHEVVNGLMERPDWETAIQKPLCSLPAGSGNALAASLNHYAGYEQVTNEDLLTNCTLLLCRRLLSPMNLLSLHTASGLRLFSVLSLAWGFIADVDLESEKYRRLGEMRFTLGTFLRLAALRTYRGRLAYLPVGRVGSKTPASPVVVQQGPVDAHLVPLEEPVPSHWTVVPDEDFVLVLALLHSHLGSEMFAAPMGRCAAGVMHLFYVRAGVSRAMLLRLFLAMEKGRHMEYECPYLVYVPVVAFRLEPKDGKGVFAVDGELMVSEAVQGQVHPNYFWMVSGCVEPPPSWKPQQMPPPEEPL
Sequence of Sphingosine kinase 1 (Mus musculus, UniProt Q8CI15) (Q8CI15 whole entry): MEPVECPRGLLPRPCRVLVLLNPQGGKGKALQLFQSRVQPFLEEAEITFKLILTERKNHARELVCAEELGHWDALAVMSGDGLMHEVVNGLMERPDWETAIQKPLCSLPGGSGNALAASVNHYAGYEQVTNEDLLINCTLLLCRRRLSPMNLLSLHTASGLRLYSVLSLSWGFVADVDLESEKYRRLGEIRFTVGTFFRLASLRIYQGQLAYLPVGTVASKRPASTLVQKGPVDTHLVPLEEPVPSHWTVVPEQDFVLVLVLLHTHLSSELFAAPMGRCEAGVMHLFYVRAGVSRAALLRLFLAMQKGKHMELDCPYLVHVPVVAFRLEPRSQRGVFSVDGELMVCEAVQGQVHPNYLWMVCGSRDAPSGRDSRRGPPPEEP

Question: For `Oc1ccc(Nc2nc(-c3ccc(Cl)cc3)cs2)cc1`, which Ki (Sphingosine kinase 2 [1]) is on record?
Answer: 8 µM

Question: For `CC(=O)N(C1=C(Cl)C(=O)c2ccccc2C1=O)C1CCCCC1`, which Ki (Sphingosine kinase 1 [2]) is on record?
Answer: 0.3 µM

Question: Which IC50 (Sphingosine kinase 1 [3]) does the source give for `CCCCCCCCCCCCCC[C@@H]1OC[C@@H](N)[C@@H]1O` here?
Answer: 5.3 µM

Question: What about the IC50 (Sphingosine kinase 2 [4]) of the same molecule?
Answer: 1.6 µM

Question: How did the IC50 (Sphingosine kinase 1 [5]) turn out when `CCCCCCCCCCCCCC[C@@H]1OC[C@H](N)[C@@H]1O` was run?
Answer: 4.6 µM

Question: And the IC50 (Sphingosine kinase 2 [6])?
Answer: 6.6 µM

Question: `CCCCCCCCCCCCC/C=C/[C@H](O)[C@@H](CO)N(C)C` was tested. Which Ki (Sphingosine kinase 2 [1]) did it give?
Answer: 12 µM

Question: With `N[C@H]1CN[C@H](CCCCCCCCCCCOC2CCOCC2)[C@H]1O` as the molecule, how does the IC50 (Sphingosine kinase 1 [7]) read?
Answer: 0.8 µM

Question: Which IC50 (Sphingosine kinase 1 [8]) does the source give for `COc1ccc2[nH]c(=O)c(/C=C/C(=O)c3ccc(Nc4nccc(-c5ccc6ccccc6c5)n4)cc3)cc2c1` here?
Answer: 3.1 µM

Question: How did the Ki (Sphingosine kinase 1 [2]) turn out when `CCCCCCCCCCCCC/C=C/C(O)C(CO)NC(=N)N` (centres undefined) was run?
Answer: 0.04 µM

Question: And the Ki (Sphingosine kinase 2 [1])?
Answer: 0.3 µM

Question: What does the source list for `Brc1cc2c(c3ccccc13)N1OC(C2)CC1CCc1ccccc1` (centres undefined)?
Answer: IC50 (Sphingosine kinase 1 [8]): > 650 µM; IC50 (Sphingosine kinase 2 [9]): 71 µM

Question: What does the source list for `CCCOCCCCCCCCCC[C@@H]1OC[C@@H](N)[C@@H]1O`?
Answer: IC50 (Sphingosine kinase 1 [7]): > 30 µM; IC50 (Sphingosine kinase 2 [10]): 3.2 µM

Question: With `CCCCCCCCOc1ccc2cc(-c3noc(C4[C@@H](O)CCN4C(=N)N)n3)ccc2c1` (single isomer, unassigned) as the molecule, how does the Ki (Sphingosine kinase 1 [11]) read?
Answer: 20 µM

Question: What about the Ki (Sphingosine kinase 2 [12]) of the same molecule?
Answer: 1 µM

Question: With `CCCCCCCCCCCCCC[C@H]1OC[C@H](N)[C@@H]1O` [2-EPI JASPINE B] as the molecule, how does the IC50 (Sphingosine kinase 1 [7]) read?
Answer: 4.3 µM

Question: What about the IC50 (Sphingosine kinase 2 [10]) of the same molecule?
Answer: 24.8 µM

— ChEMBL document CHEMBL5226290, “Rational design of SphK inhibitors using crystal structures aided by computer” (Eur J Med Chem, 2021)
